Test results as given in patent publication US12085575B2, “Compositions and methods for detecting proteinopathies” (BOARD OF SUPERVISORS OF LOUISIANA STATE UNIVERSITY AND …, priority 2011, dated 2024).

How the values were obtained:
Type in all cases: cell-based, human
[1] = tested on: HA-polyubiquitylated proteins; test: UV-induced degradation of HA-polyubiquitylated proteins (anti-HA Western blot); conditions: MG132 1 nm or 3-MA 10 nm for 18 h, UV 25 mJ/m2
Method: Immunoblotting Analysis of HA-ubiquitin conjugated proteins in cells exposed to UV radiation. Cells ([…]) were transfected with a hemagglutinin (HA)-ubiquitin plasmid using the PolyFect transfection reagent (Qiagen; Valencia, CA) as described (24). Twenty-four h after transfection, cells were treated with either proteasome inhibitor MG132 (1 μM) (Boston Biochemicals; Cambridge, MA) or autophagy inhibitor Bafilomycin A1 (Bafl) (1 nM) (Sigma-Aldrich) or 3-Methyladenine (3-MA) (100 nM) for 18 h. Cells were exposed to UV radiation (25 mJoules, using BioRad GS Gene Linker™ UV Chamber) and/or left untreated. Cells were then allowed to recover in the presence of inhibitors for 3 hr. Cell lysis, SDS-PAGE, and immunoblotting analysis to detect HA-ubiquitin conjugated proteins using anti-HA antibodies was carried out as described herein.
Decrease in the steady state levels of polyubiquitylated proteins could be due to their increased deubiquitylation or increased degradation via the 26S proteasome. Also, the ubiquitin antibody used in the experiment herein is known to cross-react with free ISG15/UCRP (44), and ISG15 protein is elevated in A-T cells (20). An HA-ubiquitin construct was transfected and then the steady state levels of the HA-polyubiquitylated proteins was assessed (to rule out the possibility of protein polyubiquitylation versus protein polyISGlyation), in the absence or presence of the proteasome inhibitor MG132 (to rule out the possibility of protein deubiquitylation versus protein degradation), in UV treated A-T and ATM+ cells. In FIG. 8B, A-T and ATM+ cells were transfected with a HA-ubiquitin construct. Cells were then treated with MG132 (1 μM) or Bafl (1 nM) for 18 hours and exposed to UV radiation (25 mJ/m2). After recovery in the presence of inhibitors for an additional three hours, cells were lysed. Cell extracts were analyzed by Western blotting for HA-polyubiquitylated proteins and actin using anti-HA and anti-actin antibodies respectively. Intensity of the total HA-polyubiquitylated proteins was quantitated using BioRad Quantity One software and results shown in FIG. 8C.
To complement the results shown in FIG. 8B, another construct was used that expresses HA-ubiquitin and that can preferentially make polyubiquitin chains linked through Lys48 on the substrates (20). In FIG. 8D, A-T and ATM+ cells were transfected with HA-Lys48 only ubiquitin construct. The inhibitor and UV treatments, cell lysis, SDS-PAGE, and immunoblotting analysis to detect HA-ubiquitin conjugated proteins using anti-HA antibodies was carried out as described herein. The experiment was repeated two times with the reproducible results. Similar results were obtained using this distinct HA-ubiquitin construct (FIG. 8D) as obtained herein (FIG. 8B); UV induced MG132- and Bafilomycin-resistant degradation of HA-Lys48-linked polyubiquitylated proteins in A-T cells, but not in ATM+ cells.
For FIG. 14A, HA-ubiquitin-transfected A-T/LV-control shRNA cells were exposed to UV (25 mJ/m2). After three hours of recovery, assessment of HA-polyubiquitylated proteins was carried out as described herein for FIG. 8B. In FIG. 14B, HA-ubiquitin-transfected A-T/LV-control shRNA cells were treated with Bafl (1 nm for 18 h). Cells were then exposed to UV (25 mJ/m2). After three hours of recovery in the presence of the inhibitor, assessment of HA-polyubiquitylated proteins was carried out as described for FIG. 14A. For FIG. 14C, HA-ubiquitin-transfected A-T/LV-control shRNA cells were treated with MG132 (1 nm for 18 h). Cells were then exposed to UV (25 mJ/m2). After three hours of recovery in the presence of the inhibitor, assessment of HA-polyubiquitylated proteins was carried out as described for FIG. 14A. For FIG. 14D, HA-ubiquitin-transfected A-T/LV-control shRNA cells were treated with 3-MA (10 nm for 18 h). Cells were then exposed to UV (25 mJ/m2). […]

[2] = tested on: autophagosomes and autophagolysosomes; test: Cyt-ID and LysoTracker Red staining of autophagosomes, lysosomes and autophagolysosomes
Method: Autophagasome, lysosome and autophagolysosomes staining. Cells (100,000/point) were cultured on fibronectin-coated glass coverslips. Cells were treated with autophagy inhibitor Bafl (1 nM) (Sigma-Aldrich) for 18 hr. Cells were then exposed to UV radiation and allowed to recover in the presence of inhibitors for 3 h. Cells were then washed (2×1 min) with PBS and co-stained with Cyt-ID® (Cyt-ID® Autophagy Detection Kit from Enzo Lifesciences; Farmingdale, NY) and Lyso Tracker® Red DND-99 (Invitrogen) for 30 min at 37° C. in a CO2 incubator following manufacturer's protocol. Stained cells were then washed (2×1 min) with PBS and fixed with 4% paraformaldehyde for 20 min at room temperature. After washing with PBS (3×10 min), cells were mounted on slides in anti-fade mounting medium with DAPI (Invitrogen). Images were taken using a 63× oil immersion objective with a Leica DMRA2 upright microscope run through SlideBook software (Intelligent Imaging Innovations).
Autophagic flux was also monitored using Cyto-ID® and LysoTrack Red dyes. A-T and ATM+ cells were treated with Bafl (1 nM for 18 h) and then exposed to UV (25 mJ/m2) as indicated. Three hours after recovery in the presence of inhibitors, cells were co-stained with Cyt-ID® and LysoTracker Red® dyes. Fluorescence images of Cyt-ID® and LysoTracker Red® stained cells were made (Color images not shown). Green (autophagosomes; from Cyt-TD®-stained panels), red (lysosomes; from LysoTracker Red-stained panels), and yellow (autophagolysosomes; from merged panels) dots in A-T and ATM+ cells were counted manually using the ImageJ plug-in Cell Counter. Mean number of dots/cell is shown in FIGS. 11A and 11B, respectively. In FIGS. 11A and 11B, the number of autophagosomes (green dots) is represented by stippled bars; the number of lysosomes (red dots) is presented by lined bar; and the number of autophagolysosomes (yellow dots) is represented by clear (white) bars.
Bafilomycin inhibits autophagy at a late stage (47). Whether 3-methyl adenine (3-MA), an autophagy inhibitor known to inhibit autophagy at early stage by inhibiting formation of autophagosomes (56), could block UV-induced autophagic flux was tested in A-T/LV-control shRNA cells. Using Cyto-ID® and LysoTrack Red dyes as described herein in FIGS. 9A, 9B, 11A and 11B, the same criteria were used to judge autophagic activity in immunofluorescence analysis as described for FIGS. 11A and 11B.
The effect of 3-MA on UV-induced autophagic flux was tested in A-T/LV-ISG15 shRNA cells. A-T/LV-ISG15 shRNA cells were either left untreated or treated with 3-MA (10 nM for 18 h), and cells were then exposed to UV (25 mJ/m2). Three hours after recovery in the presence of the inhibitor, cells were co-stained with Cyt-ID® and LysoTracker Red® dyes. Fluorescence images of Cyt-ID® and LysoTracker Red® stained cells were made.

[3] = tested on: polyubiquitylated proteins; test: CHX chase of polyubiquitylated proteins in FT169A cells; conditions: FT169A (ATM+) cells
Method: To test whether the defective ubiquitin-mediated degradation of cellular proteins contributes to neurodegeneration in A-T, the rate of degradation of overall cellular polyubiquitylated proteins was monitored in FT169A (A-T) (ATM null) and FT169A (ATM+) (ATM reconstituted FT169A) isogenic cells as described (71) using the protein synthesis inhibitor cycloheximide (CHX) (Sigma-Aldrich). In FIG. 1A, FT169A (A-T) (lanes 1-4) and FT169A (ATM+) (lanes 5-8) cells were treated with the protein synthesis inhibitor CHX (10 μg/ml) for 0, 1, 3, and 6 hours. Cell lysates were analyzed using discontinuous (15%) SDS-PAGE followed by immunoblotting with anti-ubiquitin antibody. The symbols * and ** mark the position of high-molecular-weight (HMW) polyubiquitylated proteins. Quantitation of the high-molecular-weight (HMW) polyubiquitylated proteins (shown as **) is shown in the bar graph.
The ubiquitin sequence contains seven lysine residues (at positions 6, 11, 27, 29, 33, 48, and 63) and polyubiquitin chain assembly can occur at any of these lysine residues (74). Lys48-linked polyubiquitylated proteins are targeted for destruction via the 26S proteasome (74). […] The amount of polyubiquitylated proteins and the rate of turnover of polyubiquitylated proteins (see the HMW protein species marked by *) were determined under the same conditions as in FIG. 1B using the anti-HA antibody in immunoblotting. […]

Mfn2 = Mfn2 modification and degradation in A-T/LV shRNA cells treated with mitochondrial depolarizing agents; conditions: ISG15 overexpressing A-T cells, 24 hr
Method: Immunoblotting Analysis of Mitochondrial Proteins—Mitochondria were isolated from A-T/LV control and ISG15 shRNA cells using the Miochondrial Isolation Kit (Thermo Scientific Company, 89874). The Dounce homogenization protocol described by the manufacturer was used to isolate mitochondria from cells. Mitochondrial pellets were resuspended in lysis buffer containing 50 mM Tris pH 7.5 and 4% (v/v) SDS. Samples were homogenized and boiled for 10 min. Lysates containing equal protein were then mixed with 6× Laemmli SDS sample buffer (3× final concentration). Samples were boiled again and mitochondrial proteins were analyzed by SDS-PAGE. Immunoblotting analyses using either anti-ISG15 (raised against human ISG15) (20), anti-ubiquitin (gift from Dr. Arthur Haas, at LSUHSC—New Orleans), or anti-mitofusin 2 (Abcam, ab88569) antibodies were carried out using the ECL Western procedure (Pierce, 34076) and the BioRad VersaDoc Imaging System (BioRad). Immunoblotting Analysis of HA Polyubiquitylated Proteins in Cells: Cells were transfected with HA-ubiquitin using the PolyFect transfection reagent (Qiagen, 301105). Twenty four hours after transfection, mitochondria were isolated as described above. Mitochondrial lysis, SDS-PAGE, and immunoblotting analysis to detect HA-ubiquitin conjugated proteins using anti-HA antibodies were carried out as described above. Immunoblotting Analysis of Mfn2 in Cells: Cells were lysed in lysis buffer containing 50 mM Tris-HCl, pH 7.5, 2% SDS, and protease inhibitor cocktail. Lysates were sonicated, boiled, and cleared by centrifugation. Lysates containing equal protein were then mixed with 6× Laemmli SDS sample buffer (3× final concentration). Samples were boiled again and proteins were separated by 15% SDS-PAGE. Immunoblotting analysis was carried out using anti-Mfn2 antibodies (Abcam) as described above. Intensity of the Mfn2 bands was quantitated using BioRad Quantity One software. Statistical analysis—Statistical analysis was carried out using GraphPad software.
Many outer mitochondrial membrane (OMM) proteins are ubiquitylated and degraded via the 26S proteasome prior to mitophagy in cells treated with the mitochondrial depolarizing agents (28,29). To test whether ISG15 inhibits polyubiquitylation of OMM proteins, we assessed the fate of Mfn2, an OMM protein and proteasome substrate, in A-T/LV-control and A-T/LV-ISG15-silenced cells treated with two different mitochondrial depolarizing agents, valinomycin and carbonylcyanide m-chlorophenylhydrazone (CCCP). Consistent with the literature reports (29,35,36), we observed a ladder of high molecular weight anti-Mfn2 cross-reactive bands above the 86 kDa Mfn2 protein band that is reminiscent of polyubiquitylation, in both ISG15-silenced and ISG15 overexpressing A-T cells (FIGS. 34 A and B, left panels). The endogenous level of these high molecular weight Mfn2 cross-reactive bands was remarkably higher in ISG15-silenced as compared to the ISG15-overexpressing A-T cells in the absence of any drugs (FIGS. 34A and B, first panels, compare lanes 1 and 4). […] In contrast, the level of these Mfn2 cross-reactive high molecular weight bands decreased under the same drug treatment conditions in ISG15-silenced A-T cells (FIGS. 34A and B, first panels, lanes 4-6, and the accompanying bar graph in the second panel for quantitation). […] The bar graphs in FIGS. 34A and B, third panels, show mean values of the ratio between free Mfn2 (86 kDa band) and actin proteins (±SEM) in CCCP-treated A-T/LV-control and ISG15 shRNA cells measured from eight independent experiments, and valinomycin-treated A-T/LV-control and ISG15 shRNA cells measured from three independent experiments respectively.

Cn1cnc(N)c2ncnc1-2 [3-MA, 3-Methyladenine]
UV-induced degradation of HA-polyubiquitylated proteins ([1]; A-T/LV-ISG15 shRNA (ISG15-silenced) cells): induced degradation
UV-induced degradation of HA-polyubiquitylated proteins ([1]; A-T/LV-control shRNA cells): markedly blocked
yellow mean dots/cell (autophagolysosomes) ([2]; 3-MA-treated A-T/LV-control shRNA cells, untreated 3.8): 0.5 dots/cell
green mean dots/cell (autophagosomes) ([2]; 3-MA-treated A-T/LV-control shRNA cells, untreated 4.6): 0.16 dots/cell
autophagic activity ([2]; A-T/LV-ISG15 shRNA cells, 3-MA 10 nM 18 h, UV 25 mJ/m2): No apparent change
green dots and yellow dots ([2]; A-T/LV-control shRNA cells co-treated with 3-MA and UV): remained unaltered

C[C@@H]1C[C@@H]([C@H](O)CC2CC(=O)NC(=O)C2)C(=O)[C@@H](C)C1 [CHX, cycloheximide]
level of polyubiquitylated proteins reduced ([3]; CHX 10 μg/ml, within 6 hours): more than 30%
cellular pool of Lys48-linked polyubiquitylated proteins reduced ([3]; CHX, within 3 hours): more than 70%

CC(C)[C@@H]1NC(=O)[C@H](C)OC(=O)[C@@H](C(C)C)NC(=O)[C@@H](C(C)C)OC(=O)[C@H](C(C)C)NC(=O)[C@H](C)OC(=O)[C@@H](C(C)C)NC(=O)[C@@H](C(C)C)OC(=O)[C@H](C(C)C)NC(=O)[C@H](C)OC(=O)[C@@H](C(C)C)NC(=O)[C@@H](C(C)C)OC1=O [valinomycin]
free Mfn2 protein level (Mfn2): slightly increased
